According to US10414811B2, “Protease-resistant lipidated GLP-1 analogs” (MEDIMMUNE LIMITED, priority 2015, dated 2019):
Where two headings read alike, the source gives them in different places. Numbered stars: 1 amine (or outer) side, 2 acyl side, 3 side chain; on linkers, the order of the positions; unused ones are H or OH. Square brackets hold non-standard residues; d marks the D form. Side chains are listed from the residue outwards. Peptide text beside a SMILES is read from it. * marks the point of attachment. γGlu = O=C(O)[C@H](CCC(=O)[*:2])N[*:1]; Palmitoyl = CCCCCCCCCCCCCCCC(=O)*; αMeF = C[C@](N)(Cc1ccccc1)C(=O)O; αMeK = C[C@](N)(CCCCN)C(=O)O; αMeS = C[C@](N)(CO)C(=O)O; Aib = CC(C)(N)C(=O)O

Columns and labels:
Assay type in all cases: cell-based
[1] = molecular target: T1, human GLP-1 receptor (GLP-1R) (Homo sapiens, UniProt P43220); test: cAMP assay, human GLP-1R cells
T1 construct: expressed in transfected cells
Procedure, shortened: (§1)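 Peptide-stimulated cAMP measured by two-step HTRF after a 30 min room-temperature incubation with receptor-expressing cells (hGLP-1R, hGIPR at 1×10^5 cells/ml; hGCGR at 2×10^5 cells/ml). Duplicate dilutions; EC50 from 4-parameter logistic fit of % Delta F.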

[2] = molecular target: T2, human glucose-dependent insulinotropic peptide receptor (GIPR) (Homo sapiens, UniProt P48546); test: cAMP assay, human GIPR cells; conditions: cAMP assay
T2 construct: expressed in transfected cells
T2 sequence (P48546 22-466): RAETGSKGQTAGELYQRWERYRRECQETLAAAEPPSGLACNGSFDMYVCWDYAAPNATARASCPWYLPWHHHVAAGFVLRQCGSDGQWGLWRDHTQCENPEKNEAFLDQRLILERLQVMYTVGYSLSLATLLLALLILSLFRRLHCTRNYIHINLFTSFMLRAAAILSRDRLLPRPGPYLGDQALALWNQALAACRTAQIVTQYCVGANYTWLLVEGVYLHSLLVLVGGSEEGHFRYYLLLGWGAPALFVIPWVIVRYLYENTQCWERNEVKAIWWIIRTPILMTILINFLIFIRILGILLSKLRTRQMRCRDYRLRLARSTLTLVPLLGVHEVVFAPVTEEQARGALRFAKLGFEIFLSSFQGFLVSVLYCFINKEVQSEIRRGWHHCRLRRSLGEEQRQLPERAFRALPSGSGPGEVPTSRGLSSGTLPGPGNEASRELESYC
Procedure, shortened: as §1

[3] = molecular target: T3, human glucagon receptor (GCGR) (Homo sapiens, UniProt P47871); test: cAMP assay, human GCGR cells; conditions: cAMP assay
T3 construct: expressed in transfected cells
Procedure, shortened: as §1

[4] = cAMP assay, first determination (n1), read-out: Primary assay EC50 GLP-1R n1
[5] = cAMP assay, second determination (n2), read-out: Primary assay EC50 GLP-1R n2
[6] = mean of n1 and n2, read-out: Mean pM GLP-1R
[7] = first determination (n1), read-out: Primary assay EC50 GIP-R (n1)
[8] = second determination (n2), read-out: Primary assay EC50 GIP-R (n2)
[9] = first determination (n1), read-out: Primary assay EC50 Gluc-R (n1)
[10] = second determination (n2), read-out: Primary assay EC50 Gluc-R (n2)

T3 sequence (P47871 26-477): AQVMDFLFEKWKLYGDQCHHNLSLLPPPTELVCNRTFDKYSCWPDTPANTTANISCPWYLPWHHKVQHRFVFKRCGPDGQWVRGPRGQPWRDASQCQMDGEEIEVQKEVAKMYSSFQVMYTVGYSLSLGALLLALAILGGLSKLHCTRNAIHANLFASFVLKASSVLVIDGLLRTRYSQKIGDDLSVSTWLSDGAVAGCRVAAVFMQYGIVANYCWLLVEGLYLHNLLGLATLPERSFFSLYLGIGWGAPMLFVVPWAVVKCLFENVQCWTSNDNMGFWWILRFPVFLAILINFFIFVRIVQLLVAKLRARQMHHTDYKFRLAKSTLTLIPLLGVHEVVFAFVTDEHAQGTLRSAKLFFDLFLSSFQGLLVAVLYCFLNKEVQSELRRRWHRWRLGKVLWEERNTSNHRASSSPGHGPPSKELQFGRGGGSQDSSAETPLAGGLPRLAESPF
T1 sequence (P43220 24-463): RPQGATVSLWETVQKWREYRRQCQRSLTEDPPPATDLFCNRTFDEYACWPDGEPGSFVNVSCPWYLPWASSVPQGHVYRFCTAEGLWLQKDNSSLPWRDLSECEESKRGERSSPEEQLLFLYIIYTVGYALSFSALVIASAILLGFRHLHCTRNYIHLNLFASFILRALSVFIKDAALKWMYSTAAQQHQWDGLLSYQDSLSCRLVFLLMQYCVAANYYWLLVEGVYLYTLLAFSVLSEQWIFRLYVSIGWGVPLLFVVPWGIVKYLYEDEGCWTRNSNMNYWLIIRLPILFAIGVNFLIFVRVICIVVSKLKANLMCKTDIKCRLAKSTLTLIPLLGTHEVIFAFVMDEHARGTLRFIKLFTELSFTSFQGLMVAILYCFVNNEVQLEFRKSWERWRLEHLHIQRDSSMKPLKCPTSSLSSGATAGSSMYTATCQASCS

Row | SMILES | EC50 [1, 4] [pM] | EC50 [1, 5] [pM] | EC50 [1, 6] [pM] | EC50 [2, 7] [nM] | EC50 [2, 8] [nM] | EC50 [3, 9] [nM] | EC50 [3, 10] [nM]
1 | CCCCCCCCCCCCCCCC(=O)N[C@@H](CCC(=O)NCCCC[C@H](NC(=O)CNC(=O)CNC(=O)[C@](C)(CCCCN)NC(=O)[C@@H](NC(=O)[C@@H](NC(=O)[C@](C)(Cc1ccccc1)NC(=O)[C@H](C)NC(=O)[C@@H](NC(=O)[C@](C)(Cc1ccccc1)NC(=O)[C@H](CCC(=O)O)NC(=O)[C@](C)(CCCCN)NC(=O)[C@H](C)NC(=O)[C@H](C)NC(=O)[C@H](CCC(=O)O)NC(=O)CNC(=O)[C@H](CCC(=O)O)NC(=O)[C@H](CC(C)C)NC(=O)[C@](C)(Cc1ccccc1)NC(=O)[C@H](CO)NC(=O)[C@](C)(CO)NC(=O)[C@@H](NC(=O)[C@H](CC(=O)O)NC(=O)[C@H](CC(=O)O)NC(=O)[C@@H](NC(=O)[C@](C)(Cc1ccccc1)NC(=O)[C@H](CO)NC(=O)CNC(=O)[C@H](CCC(=O)O)NC(=O)C(C)(C)NC(=O)[C@@H](N)Cc1c[nH]cn1)[C@@H](C)O)C(C)C)[C@@H](C)CC)C(C)C)C(C)C)C(N)=O)C(=O)O [compound 35] (H-H[Aib]EGS[αMeF]TDDV[αMeS]S[αMeF]LEGEAA[αMeK]E[αMeF]IA[αMeF]VV[αMeK]GGK([γGlu-Palmitoyl])-NH2; N-terminus assumed) | 4900 | 1700 | 3260 | ≥ 89 | ≥ 27 | ≥ 89 | ≥ 27
2 | CCCCCCCCCCCCCCCC(=O)N[C@@H](CCC(=O)NCCCC[C@H](NC(=O)[C@H](C)NC(=O)[C@H](C)NC(=O)[C@H](CCC(=O)O)NC(=O)CNC(=O)[C@H](CCC(=O)O)NC(=O)[C@H](CC(C)C)NC(=O)[C@](C)(Cc1ccccc1)NC(=O)[C@H](CO)NC(=O)[C@](C)(CO)NC(=O)[C@@H](NC(=O)[C@H](CC(=O)O)NC(=O)[C@H](CC(=O)O)NC(=O)[C@@H](NC(=O)[C@](C)(Cc1ccccc1)NC(=O)[C@H](CO)NC(=O)CNC(=O)[C@H](CCC(=O)O)NC(=O)C(C)(C)NC(=O)[C@@H](N)Cc1c[nH]cn1)[C@@H](C)O)C(C)C)C(=O)N[C@@H](CCC(=O)O)C(=O)N[C@@](C)(Cc1ccccc1)C(=O)N[C@H](C(=O)N[C@@H](C)C(=O)N[C@@](C)(Cc1ccccc1)C(=O)N[C@H](C(=O)N[C@H](C(=O)N[C@@](C)(CCCCN)C(=O)NCC(=O)NCC(N)=O)C(C)C)C(C)C)[C@@H](C)CC)C(=O)O [compound 37] (H-H[Aib]EGS[αMeF]TDDV[αMeS]S[αMeF]LEGEAAK([γGlu-Palmitoyl])E[αMeF]IA[αMeF]VV[αMeK]GG-NH2) | 7300 | 1700 | 4500 | ≥ 92 | ≥ 28 | ≥ 92 | ≥ 28
3 | CC[C@H](C)[C@H](NC(=O)[C@](C)(Cc1ccccc1)NC(=O)[C@H](CCC(=O)O)NC(=O)[C@H](CCCCN)NC(=O)[C@H](C)NC(=O)[C@H](C)NC(=O)[C@H](CCC(=O)O)NC(=O)CNC(=O)[C@H](CCC(=O)O)NC(=O)[C@H](CC(C)C)NC(=O)[C@](C)(Cc1ccccc1)NC(=O)[C@H](CO)NC(=O)[C@H](CO)NC(=O)[C@@H](NC(=O)[C@H](CC(=O)O)NC(=O)[C@H](CO)NC(=O)[C@@H](NC(=O)[C@](C)(Cc1ccccc1)NC(=O)[C@H](CO)NC(=O)CNC(=O)[C@H](CCC(=O)O)NC(=O)C(C)(C)NC(=O)[C@@H](N)Cc1c[nH]cn1)[C@@H](C)O)C(C)C)C(=O)N[C@@H](C)C(=O)N[C@@](C)(Cc1ccccc1)C(=O)N[C@H](C(=O)N[C@H](C(=O)N[C@@H](CCCCN)C(=O)NCC(=O)NCC(=O)N[C@@H](CCCCNC(=O)COCCOCCNC(=O)COCCOCCNC(=O)CC[C@H](NC(=O)CCCCCCCCCCCCCCCCC(=O)O)C(=O)O)C(N)=O)C(C)C)C(C)C [compound 38] | 62 | 82 | 72 | 25 | 25 | 25 | 25
4 | CCCCCCCCCCCCCCCC(=O)N[C@@H](CCC(=O)NCCCC[C@H](NC(=O)CNC(=O)CNC(=O)[C@H](CCCCN)NC(=O)[C@@H](NC(=O)[C@@H](NC(=O)[C@](C)(Cc1ccccc1)NC(=O)[C@H](C)NC(=O)[C@@H](NC(=O)[C@](C)(Cc1ccccc1)NC(=O)[C@H](CCC(=O)O)NC(=O)[C@H](CCCCN)NC(=O)[C@H](C)NC(=O)[C@H](C)NC(=O)[C@H](CCC(=O)O)NC(=O)CNC(=O)[C@H](CCC(=O)O)NC(=O)[C@H](CC(C)C)NC(=O)[C@](C)(Cc1ccccc1)NC(=O)[C@H](CO)NC(=O)[C@H](CO)NC(=O)[C@@H](NC(=O)[C@H](CC(=O)O)NC(=O)[C@H](CO)NC(=O)[C@@H](NC(=O)[C@](C)(Cc1ccccc1)NC(=O)[C@H](CO)NC(=O)CNC(=O)[C@H](CCC(=O)O)NC(=O)C(C)(C)NC(=O)[C@@H](N)Cc1c[nH]cn1)[C@@H](C)O)C(C)C)[C@@H](C)CC)C(C)C)C(C)C)C(N)=O)C(=O)O [compound 39] (H-H[Aib]EGS[αMeF]TSDVSS[αMeF]LEGEAAKE[αMeF]IA[αMeF]VVKGGK([γGlu-Palmitoyl])-NH2; N-terminus assumed) | 33 | 33 | 33 | ≥ 27 | ≥ 27 | ≥ 27 | ≥ 27
5 | CC[C@H](C)[C@H](NC(=O)[C@](C)(Cc1ccccc1)NC(=O)[C@H](CCC(=O)O)NC(=O)[C@H](CCCCNC(=O)COCCOCCNC(=O)COCCOCCNC(=O)CC[C@H](NC(=O)CCCCCCCCCCCCCCCCC(=O)O)C(=O)O)NC(=O)[C@H](C)NC(=O)[C@H](C)NC(=O)[C@H](CCC(=O)O)NC(=O)CNC(=O)[C@H](CCC(=O)O)NC(=O)[C@H](CC(C)C)NC(=O)[C@](C)(Cc1ccccc1)NC(=O)[C@H](CO)NC(=O)[C@H](CO)NC(=O)[C@@H](NC(=O)[C@H](CC(=O)O)NC(=O)[C@H](CO)NC(=O)[C@@H](NC(=O)[C@](C)(Cc1ccccc1)NC(=O)[C@H](CO)NC(=O)CNC(=O)[C@H](CCC(=O)O)NC(=O)C(C)(C)NC(=O)[C@@H](N)Cc1c[nH]cn1)[C@@H](C)O)C(C)C)C(=O)N[C@@H](C)C(=O)N[C@@](C)(Cc1ccccc1)C(=O)N[C@H](C(=O)N[C@H](C(=O)N[C@@H](CCCCN)C(=O)NCC(=O)NCC(N)=O)C(C)C)C(C)C [compound 40] | 1800 | 570 | 1170 | ≥ 85 | ≥ 26 | ≥ 85 | ≥ 26
6 | CCCCCCCCCCCCCCCC(=O)N[C@@H](CCC(=O)NCCCC[C@H](NC(=O)[C@H](C)NC(=O)[C@H](C)NC(=O)[C@H](CCC(=O)O)NC(=O)CNC(=O)[C@H](CCC(=O)O)NC(=O)[C@H](CC(C)C)NC(=O)[C@](C)(Cc1ccccc1)NC(=O)[C@H](CO)NC(=O)[C@H](CO)NC(=O)[C@@H](NC(=O)[C@H](CC(=O)O)NC(=O)[C@H](CO)NC(=O)[C@@H](NC(=O)[C@](C)(Cc1ccccc1)NC(=O)[C@H](CO)NC(=O)CNC(=O)[C@H](CCC(=O)O)NC(=O)C(C)(C)NC(=O)[C@@H](N)Cc1c[nH]cn1)[C@@H](C)O)C(C)C)C(=O)N[C@@H](CCC(=O)O)C(=O)N[C@@](C)(Cc1ccccc1)C(=O)N[C@H](C(=O)N[C@@H](C)C(=O)N[C@@](C)(Cc1ccccc1)C(=O)N[C@H](C(=O)N[C@H](C(=O)N[C@@H](CCCCN)C(=O)NCC(=O)NCC(N)=O)C(C)C)C(C)C)[C@@H](C)CC)C(=O)O [compound 41] | 240 | 51 | 147 | ≥ 94 | ≥ 28 | ≥ 94 | ≥ 28
7 | CCCCCCCCCCCCCCCC(=O)N[C@@H](CCC(=O)NCCCC[C@H](NC(=O)CNC(=O)[C@](C)(CCCCN)NC(=O)[C@@H](NC(=O)[C@@H](NC(=O)[C@](C)(Cc1ccccc1)NC(=O)[C@H](C)NC(=O)[C@@H](NC(=O)[C@](C)(Cc1ccccc1)NC(=O)[C@H](CCC(=O)O)NC(=O)[C@](C)(CCCCN)NC(=O)[C@H](C)NC(=O)[C@H](C)NC(=O)[C@H](CCC(=O)O)NC(=O)CNC(=O)[C@H](CCC(=O)O)NC(=O)[C@H](CC(C)C)NC(=O)[C@](C)(Cc1ccccc1)NC(=O)[C@H](CO)NC(=O)[C@](C)(CO)NC(=O)[C@@H](NC(=O)[C@H](CC(=O)O)NC(=O)[C@H](CO)NC(=O)[C@@H](NC(=O)[C@](C)(Cc1ccccc1)NC(=O)[C@H](CO)NC(=O)CNC(=O)[C@H](CCC(=O)O)NC(=O)C(C)(C)NC(=O)[C@@H](N)Cc1c[nH]cn1)[C@@H](C)O)C(C)C)[C@@H](C)CC)C(C)C)C(C)C)C(N)=O)C(=O)O [compound 70] (H-H[Aib]EGS[αMeF]TSDV[αMeS]S[αMeF]LEGEAA[αMeK]E[αMeF]IA[αMeF]VV[αMeK]GK([γGlu-Palmitoyl])-NH2; N-terminus assumed) | 74 | 92 | 83 | ≥ 27 | ≥ 27 | ≥ 27 | ≥ 27
